Laboratory results reported in US4740521A, “Saudin, a novel hypoglycemic agent” (Purdue Research Foundation, priority 1986, dated 1988).

Columns and labels:
animals = assay: hypoglycemic effect in animals on injection (general statement); type: in vivo; settings: read-out: dose producing a significant hypoglycemic effect, by injection, "above about"
Description: For the control of hyperglycemia, a dose between about 25 and about 110 mg/kg is effective, when administered at intervals of about 2 to about 12 hours in a tissue-compatible liquid. Normal saline solution is a suitable solvent diluent, or alternatively aqueous carboxymethylcellulose.

[1] = test system: blood sugar level of fasting mice (alloxanized); assay: blood sugar level of fasting alloxanized mice (Table 3); type: in vivo; settings: for Blood Sugar Level, mean S.E., 1 h: control 327 ± 46; for Blood Sugar Level, mean S.E., 2 h: control 360 ± 50; for Blood Sugar Level, mean S.E., 3 h: control 355 ± 48.5; for Blood Sugar Level, mean S.E., 4 h: control 378 ± 51.5; for Blood Sugar Level, mean S.E., 5 h: control 377 ± 57.5
Description: It is possible, therefore, that saudin operates by a different mechanism than the hypoglycemic agents heretofore employed, and may for that reason find unique application in medicine. The results of comparative tests are given in the following Table 3, using mice injected intravenously with 50 mg/kg of alloxan 3 days before the tests.

[2] = test system: plasma glucose level of non-fasted rats; assay: plasma glucose level of non-fasted rats after I.P. injection (Table 1); type: in vivo, rats (male albino); settings: 40 mg/kg I.P.
Description: (§1) Male albino rats weighing from 100-150 gm were divided into groups each comprised from 7-8 rats. […] Non-fasted and fasted rats were either non-alloxanized or injected I.V. with alloxan at a dose of 40 mg/kg two days before administration of saudin. Saudin was injected I.P. in the experiment groups in a suspension form containing 0.5% carboxymethylcellulose (CMC). Control groups received I.P. injection of 0.5% CMD at a dose not exceeding 1 ml/100 gm (Maximum volume used to suspend saudin). Blood samples were taken and the plasma glucose level was estimated as indicated in the results. The method used for glucose estimation was similar to that used by Free et al., Advances in Clinical Chemistry, E. H. Sobotaka and C. P. Steward (eds.), Academic Press, New York, 6, p. 67 (1973).
non-fasted rats in response to I.P. injection of
40 mg/kg. Blood samples were taken at 1 h intervals
in heparinized tubes and plasma was separated for […]

[3] = test system: plasma glucose level of alloxanized and non-alloxanized rats; assay: plasma glucose level of alloxanized and non-alloxanized rats, fasted or non-fasted (Table 2); type: in vivo, rats (male albino)
Description: as §1
Effect of saudin on the plasma glucose level of alloxanized and
non-alloxanized rats either fasted
or non-fasted. Blood samples were taken 2 hours after saudin injection in
tubes containing heparin.
Plasma was separated for glucose estimation.

in vivo = settings: mouse, ip
Description: When suspended in carboxymethylcellulose (1.5%) and injected i.p. into mice according to the method of Miller and Tainter, Proc. Soc.

[4] = fasting mice, 50 mg/kg alloxan i.v. 3 days before, saudin 40 mg/kg, tolbutamide 150 mg/kg

Row | SMILES | minimal effective dose (animals) [mg/kg] | hypoglycemic effect in alloxanized mice (in words) ([1]; alloxanized mice, unlike tolbutamide) | Blood Sugar Level, mean S.E., 0 h ([1]; fasting mice, 50 mg/kg alloxan i.v. 3 days before, saudin 40 mg/kg, tolbutamide 150 mg/kg, 0 h, control 230 ± 40) [mg %] | Blood Sugar Level, mean S.E., 1 h [1, 4] [mg %] | Blood Sugar Level, mean S.E., 2 h [1, 4] [mg %] | Blood Sugar Level, mean S.E., 3 h [1, 4] [mg %] | Blood Sugar Level, mean S.E., 4 h [1, 4] [mg %] | Blood Sugar Level, mean S.E., 5 h [1, 4] [mg %] | hypoglycemic effect (in words) ([2]; non-alloxanized fed rats, two hours after injection) | Plasma glucose level, S.E., 0 h ([2]; non-fasted, non-alloxanized rats, 0 h, control 113.63 ± 7.50, saudin S.E. 3.05) [mg/dL] | Plasma glucose level, S.E., 1 h ([2]; non-fasted, non-alloxanized rats, 1 h, control 115.25 ± 5.78, saudin S.E. 4.45) [mg/dL] | Plasma glucose level, S.E., 2 h ([2]; non-fasted, non-alloxanized rats, 2 h, control 126.75 ± 4.62, saudin S.E. 2.31*, significant vs control at P < 0.01) [mg/dL] | Plasma glucose level, S.E., 3 h ([2]; non-fasted, non-alloxanized rats, 3 h, control 105.00 ± 3.23, saudin S.E. 3.78) [mg/dL] | Plasma glucose level, S.E., 4 h ([2]; non-fasted, non-alloxanized rats, 4 h, control 104.73 ± 4.11, saudin S.E. 4.81) [mg/dL] | Plasma glucose level, S.E., alloxanized fasted, Exp. ([3]; alloxanized (40 mg/kg alloxan I.V. 2 days before) fasted rats, 2 hours after saudin injection, control 116.66 ± 6.64, saudin S.E. 4.45) [mg/dL] | Plasma glucose level, S.E., alloxanized non-fasted, Exp. ([3]; alloxanized (40 mg/kg alloxan I.V. 2 days before) non-fasted rats, 2 hours after saudin injection, control 141.2 ± 3.43, saudin S.E. 10.78) [mg/dL] | effect on plasma glucose levels (in words) ([3]; fasted alloxanized and non-alloxanized rats, fed alloxanized rats) | Plasma glucose level, S.E., non-alloxanized fasted, Exp. ([3]; non-alloxanized fasted rats, 2 hours after saudin injection, control 81.14 ± 4.31, saudin S.E. 3.05) [mg/dL] | Plasma glucose level, S.E., non-alloxanized non-fasted, Exp. ([3]; non-alloxanized non-fasted rats, 2 hours after saudin injection, control 132.14 ± 3.82, saudin S.E. 2.22*, significant vs control at P < 0.01) [mg/dL] | LD50 (in vivo) [mg/kg]
1 | C[C@H]1C(=O)O[C@]23CC[C@]4(C)C(=O)OC[C@@]45O[C@](c4ccoc4)(C[C@@H]1[C@@]25C)O3 [saudin, (-)-(1R,4R,5S,7R,9S,13S,16R) -7-(3-furanyl)-4,13,16-trimethyl-2,8,11,17-tetraoxapentacyclo [7.6.1.1^1,7.0^5,16.0^9,13]heptadeca-3,12-dione] | > 10 | does not produce a hypoglycemic effect | 222 ± 25 | 288 ± 48.5 | 346 ± 55.4 | 342 ± 55.4 | 355 ± 54.3 | 443 ± 62.7 | significant hypoglycemic effect | 109.75 | 127.86 | 107.00 | 97.00 | 98.00 | 103.5 | 142.8 | did not alter the plasma glucose levels | 79.86 | 111.85 | 500 ± 15.8
2 | CCCCNC(=O)NS(=O)(=O)c1ccc(C)cc1 [tolbutamide, reference compound] |  |  |  | 185 ± 36 | 212 ± 40.4 | 235 ± 40.8 | 262 ± 54 | 347 ± 64 |  |  |  |  |  |  |  |  |  |  |  | 
